From PubChem BioAssay (NCI)
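Interpolation was linear, between the two tested concentrations surrounding the appropriate level; five concentrations were tested over 48 hours in 96-well plates. At the TGI there is no net growth.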

Tests used:
Assay in all cases: NCI-60 cell line screen, 48 h
[1] = system: IGROV1 ovarian
[2] = system: SF-539 CNS
[3] = system: DU-145 prostate
[4] = system: NCI-H460 lung
[5] = system: M14 melanoma
[6] = system: SR leukemia
[7] = system: U251 CNS
[8] = system: NCI-H23 lung
[9] = system: HCT-15 colon
[10] = system: CCRF-CEM leukemia
[11] = system: PC-3 prostate
[12] = system: COLO 205 colon
[13] = system: SW-620 colon
[14] = system: HOP-62 NSCLC
[15] = system: OVCAR-3 ovarian
[16] = system: 786-0 renal
[17] = system: MOLT-4 leukemia
[18] = system: A498 renal
[19] = system: SN12C renal
[20] = system: CAKI-1 renal
[21] = system: TK-10 renal
[22] = system: HT29 colon
[23] = system: MDA-MB-231 breast
[24] = system: OVCAR-8 ovarian
[25] = system: SK-MEL-5 melanoma
[26] = system: SNB-75 CNS
[27] = system: SK-OV-3 ovarian
[28] = system: HCT-116 colon
[29] = system: ACHN renal
[30] = system: BT-549 breast
[31] = system: UACC-257 melanoma
[32] = system: NCI-H226 lung
[33] = system: UO-31 renal
[34] = system: LOX IMVI melanoma
[35] = system: SF-295 CNS
[36] = system: SF-268 CNS
[37] = system: HS 578T breast
[38] = system: OVCAR-5 ovarian
[39] = system: SK-MEL-2 melanoma
[40] = system: MDA-N
[41] = system: EKVX NSCLC
[42] = system: UACC-62 melanoma
[43] = system: RPMI-8226 leukemia
[44] = system: K-562 leukemia
[45] = system: MDA-MB-435
[46] = system: NCI/ADR-RES ovarian
[47] = system: HL-60(TB) leukemia
[48] = system: HOP-92 NSCLC
[49] = system: MCF7 breast
[50] = system: A549 NSCLC
[51] = system: T-47D breast
[52] = system: KM12 colon
[53] = system: SK-MEL-28 melanoma
[54] = system: SNB-19 CNS
[55] = system: RXF 393 renal
[56] = system: NCI-H522 lung
[57] = system: OVCAR-4 ovarian
[58] = system: HCC-2998 colon

Measured: TGI

O=c1n(-c2ccccc2)c(=O)n2n1C1CCC2CC1
> 100 µM: [1] | [2] | [3] | [4] | [5] | [6] | [7] | [8] | [9] | [10] | [11] | [12] | [13] | [14] | [15] | [16] | [17] | [18] | [19] | [20] | [21] | [22] | [23] | [24] | [25] | [26] | [27] | [28] | [29] | [30] | [31] | [32] | [33] | [34] | [35] | [36] | [37] | [38] | [39] | [40] | [41] | [42] | [43] | [44] | [45] | [46] | [47] | [48] | [49] | [50] | [51] | [52] | [53] | [54]

CCOC(=O)N1c2ccccc2S(=O)(=O)c2ccccc21
> 100 µM: [1] | [2] | [3] | [4] | [5] | [7] | [8] | [55] | [9] | [10] | [11] | [12] | [13] | [14] | [15] | [16] | [17] | [18] | [19] | [20] | [21] | [22] | [23] | [56] | [24] | [25] | [27] | [28] | [29] | [30] | [31] | [32] | [33] | [57] | [34] | [35] | [36] | [37] | [38] | [39] | [40] | [41] | [58] | [42] | [44] | [45] | [46] | [47] | [49] | [50] | [51] | [52] | [53] | [54]
